Converted amounts (≈) assume the structure as drawn.
Experiments:
Type in all cases: functional
Mus musculus [1] = test: Effective dose against Aspergillus fumigatus MTU6001 strain after po administration in murine
Mus musculus [2] = test: Effective dose against Candida albicans KB-8 strain after iv administration in murine
Candida albicans = test: Minimum inhibitory concentration required for in vitro antifungal activity against Candida albicans KB-8 strain
Mus musculus [3] = test: Effective dose against Aspergillus fumigatus MTU6001 strain after iv administration in murine
Aspergillus fumigatus = test: Minimum inhibitory concentration required for in vitro antifungal activity against Aspergillus fumigatus MTU6001 strain
Mus musculus [4] = test: Effective dose against Candida albicans KB-8 strain after po administration in murine

## C[C@@H]([C@@](O)(Cn1cncn1)c1ccc(F)cc1F)S(C)(=O)=O
Mus musculus [1]
  ED50: > 125 mg/kg
Mus musculus [2]
  ED50: > 25 mg/kg
Candida albicans
  MIC: 50 µg/mL (≈ 151 µM)
Mus musculus [3]
  ED50: > 25 mg/kg
Aspergillus fumigatus
  MIC: > 800 µg/mL
Mus musculus [4]
  ED50: > 100 mg/kg

## C[C@H]([C@](O)(Cn1cncn1)c1ccc(F)cc1F)S(C)(=O)=O [GENACONAZOLE]
Mus musculus [1]
  ED50: 4.1 mg/kg
Mus musculus [2]
  ED50: 0.26 mg/kg
Candida albicans
  MIC: 0.1 µg/mL (≈ 0.302 µM)
Mus musculus [3]
  ED50: 5.3 mg/kg
Aspergillus fumigatus
  MIC: 6.25 µg/mL (≈ 18.9 µM)
Mus musculus [4]
  ED50: 0.27 mg/kg

## CC(C(O)(Cn1cncn1)c1ccc(F)cc1F)S(C)(=O)=O (racemic)
Mus musculus [1]
  ED50: 18 mg/kg
Candida albicans
  MIC: 0.2 µg/mL (≈ 0.604 µM)
Aspergillus fumigatus
  MIC: 12.5 µg/mL (≈ 37.7 µM)
Mus musculus [4]
  ED50: 0.38 mg/kg

Source: ChEMBL document CHEMBL1128890, “Synthesis and antifungal activities of optically active isomers of SM-8668” (1995)
